Results reported in ChEMBL document CHEMBL1134487, “Design, synthesis, and biological evaluation of analogues of the antitumor agent, 2-(4-[(7-chloro-2-quinoxalinyl)oxy]phenoxy)propionic acid (XK469)” (2001).

Legend:
Mus musculus [1] = experiment: Cytotoxicity against sc transplanted Mam-16/C/Adr tumors of mouse origin, activity expressed as %body wt. loss at the dose of 400 mg/kg, iv; assay type: functional
Mus musculus [2] = experiment: Cytotoxicity against sc transplanted Mam-17/0 tumors of mouse origin, activity expressed as T/C(%) at the dose of 620 mg/kg, iv; assay type: functional
Mus musculus [3] = experiment: In vivo activity tested against C3H mice bearing mammary adenocarcinoma -17/ADR tumor measured as % treated/control calculated at 620 mg/kg (po); assay type: functional
Mus musculus [4] = experiment: Cytotoxicity against sc transplanted Mam-16/C/Adr tumors of mouse origin, activity expressed as T/C(%) at the dose of 400 mg/kg, iv; assay type: functional
Mus musculus [5] = experiment: In vivo activity tested against C3H mice bearing panc-03 murine tumor measured as body weight loss at 328 mg/kg (po); assay type: functional
Mus musculus [6] = experiment: Cytotoxicity against sc transplanted Mam-16/C tumors of mouse origin, activity expressed as %T/C at the dose of 525 mg/kg, iv; assay type: functional
Mus musculus [7] = experiment: Cytotoxicity against sc transplanted Mam-16/C tumors of mouse origin, activity expressed as %body wt loss at the dose of 525 mg/kg, iv; assay type: functional
Mus musculus [8] = experiment: In vivo activity tested against C3H mice bearing mammary adenocarcinoma -17/ADR tumor measured as body weight loss at 620 mg/kg (po); assay type: functional
Mus musculus [9] = experiment: Cytotoxicity against sc transplanted colon-51 tumors of mouse origin, activity expressed as cures at the dose of 980 mg/kg, po; 1/5 cures; assay type: functional
Mus musculus [10] = experiment: Cytotoxicity against sc transplanted Mam-17/Adr tumors of mouse origin, activity expressed as %body wt. loss at the dose of 620 mg/kg, iv; assay type: functional
Mus musculus [11] = experiment: Cytotoxicity against sc transplanted L1210 tumors of mouse origin, activity expressed as T/C(%) at the dose of 332 mg/kg, iv; assay type: functional
Mus musculus [12] = experiment: Cytotoxicity against sc transplanted DMS273 sm cell tumors of mouse and human origin, activity expressed as T/C(%) at the dose of 175 mg/kg, iv; assay type: functional
Mus musculus [13] = experiment: Cytotoxicity against sc transplanted Mam-16/C tumors of mouse origin, activity expressed as log kill at the dose of 525 mg/kg, iv; assay type: functional, organism-based; set-up: dose 525 mg/kg
Mus musculus [14] = experiment: Cytotoxicity against sc transplanted colon-26 tumors of mouse origin, activity expressed as cures at the dose of 300 mg/kg, iv; 0/5 cures; assay type: functional
Mus musculus [15] = experiment: In vivo activity tested against C3H mice bearing mammary adenocarcinoma -17/ADR tumor measured as activity rating at 620 mg/kg (po); assay type: functional
Mus musculus [16] = experiment: Cytotoxicity against sc transplanted Mam-16/C tumors of mouse origin, activity expressed as cures at the dose of 525 mg/kg, iv; 1/5 cures; assay type: functional
Mus musculus [17] = experiment: Cytotoxicity against sc transplanted Mam-17/Adr tumors of mouse origin, activity expressed as log10 Kill at the dose of 620 mg/kg, iv; assay type: functional, organism-based; set-up: dose 620 mg/kg
Mus musculus [18] = experiment: Cytotoxicity against sc transplanted colon-26 tumors of mouse origin, activity expressed as T/C(%) at the dose of 300 mg/kg, iv; assay type: functional
Mus musculus [19] = experiment: In vivo activity tested against C3H mice bearing panc-03 murine tumor measured as log Kill value was based on tumors that grew at 328 mg/kg (po); assay type: functional, organism-based; set-up: dose 328 mg/kg
Mus musculus [20] = experiment: Cytotoxicity against sc transplanted Panc-03 tumors of mouse […] origin, activity expressed as %body wt loss at the dose of 328 mg/kg, po; assay type: functional
Mus musculus [21] = experiment: In vivo activity tested against C3H mice bearing mammary adenocarcinoma -17/ADR tumor measured as log Kill value was based on tumors that grew at 620 mg/kg (po); assay type: functional, organism-based; set-up: dose 620 mg/kg
Mus musculus [22] = experiment: Cytotoxicity against iv transplanted AML1498 tumors of mouse origin, activity expressed as %body wt. loss at the dose of 165 mg/kg, iv; assay type: functional
Mus musculus [23] = experiment: In vivo activity tested against C3H mice bearing panc-03 murine tumor, measured as cures at 328 mg/kg (po); 4/6 cures; assay type: functional
Mus musculus [24] = experiment: Cytotoxicity against sc transplanted Mam-16/C/Taxol tumors of mouse origin, activity expressed as %log kill at the dose of 480 mg/kg, iv; assay type: functional, organism-based; set-up: dose 480 mg/kg
Mus musculus [25] = experiment: Cytotoxicity against sc transplanted Squam-lung-LC12 tumors of mouse origin, activity expressed as cures at the dose of 400 mg/kg, iv; 5/5 cures; assay type: functional
Mus musculus [26] = experiment: Cytotoxicity against sc transplanted colon-51 tumors of mouse origin, activity expressed as T/C(%) at the dose of 980 mg/kg, po; assay type: functional
Mus musculus [27] = experiment: Cytotoxicity against sc transplanted Panc-02 tumors of mouse origin, activity expressed as %body wt. loss at the dose of 600 mg/kg, iv; assay type: functional
Mus musculus [28] = experiment: Cytotoxicity against sc transplanted Mam-17/Adr tumors of mouse origin, activity expressed as cures at the dose of 620 mg/kg, iv; 0/5 cures; assay type: functional
Mus musculus [29] = experiment: Cytotoxicity against iv transplanted L1210 tumors of mouse origin, activity expressed as log10 Kill at the dose of 300 mg/kg, iv; assay type: functional, organism-based; set-up: dose 300 mg/kg
Mus musculus [30] = experiment: Cytotoxicity against sc transplanted colon-51 tumors of mouse origin, activity expressed as log10 Kill at the dose of 980 mg/kg, po; assay type: functional, organism-based; set-up: dose 980 mg/kg
Mus musculus [31] = experiment: Cytotoxicity against sc transplanted L1210 tumors of mouse origin, activity expressed as cures at the dose of 332 mg/kg, iv; 0/5 cures; assay type: functional
Mus musculus [32] = experiment: Cytotoxicity against sc transplanted colon-26 tumors of mouse origin, activity expressed as %body wt. loss at the dose of 300 mg/kg, iv; assay type: functional
Mus musculus [33] = experiment: Cytotoxicity against sc transplanted B-16 melanoma tumors of mouse origin, activity expressed as log10 Kill at the dose of 300 mg/kg, iv; assay type: functional, organism-based; set-up: dose 300 mg/kg
Mus musculus [34] = experiment: Cytotoxicity against sc transplanted DMS273 sm cell tumors of mouse and human origin, activity expressed as %body wt. loss at the dose of 175 mg/kg, iv; assay type: functional
Mus musculus [35] = experiment: Cytotoxicity against sc transplanted colon-38 tumors of mouse origin, activity expressed as %T/C value at the dose of 546 mg/kg, iv; assay type: functional
Mus musculus [36] = experiment: Cytotoxicity against sc transplanted colon-38 tumors of mouse origin, activity expressed as cures at the dose of 546 mg/kg, iv; 3/5 cures; assay type: functional
Mus musculus [37] = experiment: Cytotoxicity against sc transplanted B-16 melanoma tumors of mouse origin, activity expressed as cures at the dose of 300 mg/kg, iv; 0/5 cures; assay type: functional
Mus musculus [38] = experiment: Cytotoxicity against sc transplanted B-16 melanoma tumors of mouse origin, activity expressed as T/C(%) at the dose of 300 mg/kg, iv; assay type: functional
Mus musculus [39] = experiment: Cytotoxicity against sc transplanted Mam-16/C/Taxol tumors of mouse origin, activity expressed as cures at the dose of 480 mg/kg, iv; 0/5 cures; assay type: functional
Mus musculus [40] = experiment: Cytotoxicity against sc transplanted Mam-16/C/Adr tumors of mouse origin, activity expressed as […] at the dose of 400 mg/kg, iv; 0/5 cures; assay type: functional
Mus musculus [41] = experiment: Cytotoxicity against sc transplanted colon-51 tumors of mouse origin, activity expressed as %body wt. loss at the dose of 980 mg/kg, po; assay type: functional

CC(Oc1ccc(Oc2cnc3ccc(Cl)cc3n2)cc1)C(=O)O (stereo unspecified)
Body weight loss (Mus musculus [1]): -9% | T/C (Mus musculus [2]): 10% | T/C (Mus musculus [3]): 2% | T/C (Mus musculus [4]): 0% | Body weight loss (Mus musculus [5]): -4% | T/C (Mus musculus [6]): 0% | Body weight loss (Mus musculus [7]): -9% | Body weight loss (Mus musculus [8]): -4% | Cures (Mus musculus [9]): 1 | Body weight loss (Mus musculus [10]): -4% | T/C (Mus musculus [11]): 30% | T/C (Mus musculus [12]): 14% | Log kill (Mus musculus [13]): 5.2 | Cures (Mus musculus [14]): 0 | Activity rating (Mus musculus [15]): >2.8 | Cures (Mus musculus [16]): 1 | Log kill (Mus musculus [17]): 3.9 | T/C (Mus musculus [18]): 14% | Log kill (Mus musculus [19]): 2.1 | Body weight loss (Mus musculus [20]): -4% | Log kill (Mus musculus [21]): 3.9 | Body weight loss (Mus musculus [22]): -7% | Cures (Mus musculus [23]): 4 | Log kill (Mus musculus [24]): 2.7 | Cures (Mus musculus [25]): 5 | T/C (Mus musculus [26]): 0% | Body weight loss (Mus musculus [27]): -3% | Cures (Mus musculus [28]): 0 | Log kill (Mus musculus [29]): 6.4 | Log kill (Mus musculus [30]): 2.7 | Cures (Mus musculus [31]): 0 | Body weight loss (Mus musculus [32]): -12% | Log kill (Mus musculus [33]): 2.6 | Body weight loss (Mus musculus [34]): -8% | T/C (Mus musculus [35]): 0% | Cures (Mus musculus [36]): 3 | Cures (Mus musculus [37]): 0 | T/C (Mus musculus [38]): 4% | Cures (Mus musculus [39]): 0 | Cures (Mus musculus [40]): 0 | Body weight loss (Mus musculus [41]): -5%
